Assay results published in ChEMBL document CHEMBL1131887, “Blockers of human T cell Kv1.3 potassium channels using de novo ligand design and solid-phase parallel combinatorial chemistry” (Bioorg Med Chem Lett, 1999).

biological target: Potassium voltage-gated channel subfamily A member 3 (Homo sapiens, UniProt P22001); test: Displacement of [125I]- ChTX from human T cell voltage-gated potassium channel subunit Kv1.3; format: cell-based
Sequence (P22001 whole entry): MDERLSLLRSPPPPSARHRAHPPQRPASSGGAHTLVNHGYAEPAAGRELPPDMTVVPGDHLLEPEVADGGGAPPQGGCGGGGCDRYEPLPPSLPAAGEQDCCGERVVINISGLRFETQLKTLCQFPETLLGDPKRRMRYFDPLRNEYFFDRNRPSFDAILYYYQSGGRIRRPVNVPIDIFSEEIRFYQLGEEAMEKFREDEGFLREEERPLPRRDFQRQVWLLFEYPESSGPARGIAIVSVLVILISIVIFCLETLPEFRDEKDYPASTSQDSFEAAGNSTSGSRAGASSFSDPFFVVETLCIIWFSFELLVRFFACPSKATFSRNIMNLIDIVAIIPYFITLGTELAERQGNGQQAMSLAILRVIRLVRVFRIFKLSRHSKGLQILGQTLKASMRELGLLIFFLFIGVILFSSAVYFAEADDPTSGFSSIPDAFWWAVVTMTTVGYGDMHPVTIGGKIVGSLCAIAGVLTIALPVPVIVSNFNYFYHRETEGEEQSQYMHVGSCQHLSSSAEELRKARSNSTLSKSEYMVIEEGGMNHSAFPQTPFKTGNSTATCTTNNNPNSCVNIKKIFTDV

| Compound | IC50 [µM] |
| --- | --- |
| CCCCNC(=O)c1cc(/C=C/Cc2ccccc2)ccc1-c1ccc(Cl)cc1 | 6.1 |
| CC(C)NC(=O)c1cc(/C=C/Cc2ccccc2)ccc1-c1ccc(Cl)cc1 | 5.6 |
| CC(C)NC(=O)c1cc(/C=C/c2ccc(OCc3ccccc3)cc2)ccc1-c1ccc(Cl)cc1 | 9.9 |
| CNC(=O)c1cc(/C=C/c2ccc(OCc3ccccc3)c(OCc3ccccc3)c2)ccc1-c1ccc(Cl)cc1 | 2.9 |
| CCNC(=O)c1cc(/C=C/CCc2ccccc2)ccc1-c1ccc(Cl)cc1 | 3.2 |
| CCCCC/N=c1\ccn(Cc2ccccc2)c2ccccc12 [CP-339818] | 0.2 |

Continued by falling IC50, values first:

| IC50 [µM] | Compound |
| --- | --- |
| 10.1 | CC(C)NC(=O)c1cc(/C=C/c2cccc(Cl)c2)ccc1-c1ccc(Cl)cc1 |
| 9.7 | CCCNC(=O)c1cc(/C=C/c2ccc(F)cc2)ccc1-c1ccc(Cl)cc1 |
| 8 | CCCCNC(=O)c1cc(/C=C/c2ccccc2F)ccc1-c1ccc(Cl)cc1 |
| 5.8 | CCCNC(=O)c1cc(/C=C/Cc2ccccc2)ccc1-c1ccc(Cl)cc1 |
| 4 | CCCNC(=O)c1cc(/C=C/CCc2ccccc2)ccc1-c1ccc(Cl)cc1 |
| 3.9 | NC(N)=NNC(=O)c1cc(/C=C/c2ccc(F)cc2)ccc1-c1ccc(Cl)cc1 |
| 3.7 | CC(C)NC(=O)c1cc(/C=C/c2ccc(Cl)c(F)c2)ccc1-c1ccc(Cl)cc1 |
